Assay results from patent publication US10195201B2, “Heteroaryl-pyrimidinone compounds as PDE2 inhibitors” (Merck Sharp & Dohme Corp., priority 2015, dated 2019).
Where two headings read alike, the source gives them in different places.

Experiments:
Rhesus PDE2A3 = Rhesus PDE2A3 (Macaca mulatta, UniProt B3VTJ2); assay: PDE2 fluorescence polarization (IMAP FP) inhibition assay, rhesus enzyme; assay type: biochemical, rhesus macaque
Method: (§1) The activity of the compounds in accordance with the present invention as PDE2 inhibitors may be readily determined using a fluorescence polarization (FP) methodology (Huang, W., et al., J. Biomol Screen, 2002, 7: 215).
In a typical experiment the PDE2 inhibitory activity of the compounds of the present invention was determined in accordance with the following experimental method. Rhesus PDE2A3 was amplified from rhesus macaque brain cDNA (Biochain Institute, Hayward, Calif.) using primers based on human PDE2A sequence (accession NM_002599.3) where the forward primer containing a Kozak consensus was 5′-[…]-3′ and the reverse primer was 5′-[…]-3′. Amplification with Easy-A High-Fidelity PCR cloning enzyme (Stratagene, La Jolla, Calif.) was 95° C. for 2 minutes followed by thirty three cycles of 95° C. for 40 seconds, 52° C. for 30 seconds, and 72° C. for 2 minutes 48 seconds. Final extension was 72° C. for 7 minutes. The PCR product was TA cloned into pcDNA3.3-TOPO (Invitrogen, Carlsbad, Calif.) according to standard protocol. A consensus sequence was developed from multiple clones and then deposited into GenBank (EU812167). AD293 cells (Stratagene, La Jolla, Calif.) with 70-80% confluency were transiently transfected with rhesus PDE2A3/pcDNA3.3-TOPO using Lipofectamine 2000 according to manufacturer specifications (Invitrogen, Carlsbad, Calif.). Cells were harvested 48 hours post-transfection and lysed by sonication (setting 3, 10×5 sec pulses) in a buffer containing 20 mM HEPES pH 7.4, 1 mM EDTA and Complete Protease Inhibitor Cocktail Tablets (Roche, Indianapolis, Ind.). Lysate was collected by centrifugation at 75,000×g for 20 minutes at 4° C. and supernatant utilized for evaluation of PDE2 activity. The fluorescence polarization assay for cyclic nucleotide phosphodiesterases was performed using an IMAP® FP kit supplied by Molecular Devices, Sunnyvale, Calif. (product # R8139). […] Assays were performed at room temperature in 384-well microtiter plates with an incubation volume of 20.2 μL. Solutions of test compounds were prepared in DMSO and serially diluted with DMSO to yield 8 μL of each of 10 solutions differing by 3-fold in concentration, at 32 serial dilutions per plate. […] 0% of inhibition is determined by using DMSO (1% final concentrations).
A Labcyte Echo 555 (Labcyte, Sunnyvale, Calif.) is used to dispense 200 nL from each well of the titration plate to the 384 well assay plate. Ten microliters of a solution of enzyme (1/2000 final dilution from aliquots; sufficient to produce 20% substrate conversion) was added to the assay plate. Next 10 uL of a separate solution of the substrate FAM-labeled cAMP (50 nM final concentration product # R7506 from Molecular Devices) and the activator cGMP (1 uM final concentration), prepared in the assay buffer (10 mM Tris HCl, pH 7.2, 10 mM MgCl2, 0.05% NaN3 0.01% Tween-20, and 1 mM DTT) was added to the assay plate and shaken to mix. The reaction is allowed to proceed at room temperature for 60 minutes. A binding solution is then made from the kit components, comprised of 80% Solution A, 20% Solution B and binding reagent at a volume of 1/600 the total binding solution. The enzymatic reaction is stopped by addition of 60 μL of the binding solution to each well of the assay plates and the plates are sealed and shaken for 30 seconds. The plate was incubated at room temperature for at least one hour prior to determining the fluorescence polarization (FP). The parallel and perpendicular fluorescence of each well of the plate was measured using a Tecan Genios Pro plate reader (Tecan, Switzerland) or Perkin Elmer EnVision™ plate reader (Waltham, Mass.). Fluorescence polarization (mP) was calculated from the parallel (S) and perpendicular (P) fluorescence of each sample well and the analogous values for the median control well, containing only substrate (So and Po), using the following equation: Polarization (mP)=1000*(S/So−P/Po)/(S/So+P/Po).

human PDE2A1 = human PDE2A1 (Homo sapiens (Human), UniProt O00408); assay: PDE2 fluorescence polarization (IMAP FP) inhibition assay, human enzyme; assay type: biochemical; details: LabB; read-out: hPDE2 Ki (nM) LabB
Sequence of human PDE2A1 (O00408 other isoform, or with tags, fused parts or gaps): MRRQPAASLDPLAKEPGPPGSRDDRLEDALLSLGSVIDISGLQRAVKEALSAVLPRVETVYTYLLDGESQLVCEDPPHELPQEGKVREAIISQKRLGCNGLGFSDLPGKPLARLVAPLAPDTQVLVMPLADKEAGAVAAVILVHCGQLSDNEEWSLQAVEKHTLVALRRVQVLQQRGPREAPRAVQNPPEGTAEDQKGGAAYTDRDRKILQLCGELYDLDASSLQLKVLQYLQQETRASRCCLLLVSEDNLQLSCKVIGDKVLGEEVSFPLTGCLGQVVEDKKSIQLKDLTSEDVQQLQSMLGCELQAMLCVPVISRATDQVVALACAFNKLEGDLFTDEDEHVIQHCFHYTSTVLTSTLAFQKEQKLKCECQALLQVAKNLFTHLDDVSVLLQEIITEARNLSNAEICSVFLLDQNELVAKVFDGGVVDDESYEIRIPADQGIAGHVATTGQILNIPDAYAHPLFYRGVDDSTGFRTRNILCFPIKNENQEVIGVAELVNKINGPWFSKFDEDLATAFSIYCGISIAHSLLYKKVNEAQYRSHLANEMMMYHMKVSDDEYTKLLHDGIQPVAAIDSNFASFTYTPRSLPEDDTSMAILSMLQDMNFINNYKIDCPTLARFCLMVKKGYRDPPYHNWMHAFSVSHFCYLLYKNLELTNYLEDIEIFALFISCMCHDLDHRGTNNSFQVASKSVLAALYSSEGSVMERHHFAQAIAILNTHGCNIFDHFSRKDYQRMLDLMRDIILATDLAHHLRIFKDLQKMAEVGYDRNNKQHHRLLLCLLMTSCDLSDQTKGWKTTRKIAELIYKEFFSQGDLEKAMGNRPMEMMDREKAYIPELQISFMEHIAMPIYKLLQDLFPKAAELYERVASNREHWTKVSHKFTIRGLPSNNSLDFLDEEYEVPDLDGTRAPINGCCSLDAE
Method: as §1
Selectivity for PDE2, as compared to other PDE families, was assessed using the IMAPR technology. Human PDE10A2 enzyme was prepared from cytosolic fractions of transiently transfected HEK cells. All other PDE's were GST Tag human enzyme expressed in insect cells and were obtained from BPS Bioscience (San Diego, Calif.): PDE1A (Cat#60010), human PDE2A1(Cat#60020), PDE3A (Cat#60030), PDE4A1A (Cat#60040), PDE5A1 (Cat#60050), PDE6C (Cat#60060), PDE7A (Cat#60070), PDE8A1 (Cat#60080), PDE9A2 (Cat#60090), PDE11A4 (Cat#60110).
Assays for PDE 1 through 11 were performed in parallel at room temperature in 384-well microtiter plates with an incubation volume of 20.2 μL. Solutions of test compounds were prepared in DMSO and serially diluted with DMSO to yield 30 μL of each of ten solutions differing by 3-fold in concentration, at 32 serial dilutions per plate. […] A Labcyte POD 810 (Labcyte, Sunnyvale, Calif.) was used to dispense 200 nL from each well of the titration plate to make eleven copies of the assay plate for each titration, one copy for each PDE enzyme. A solution of each enzyme (dilution from aliquots, sufficient to produce 20% substrate conversion) and a separate solution of FAM-labeled cAMP or FAM-labeled cGMP from Molecular Devices (Sunnyvale, Calif., product # R7506 or cGMP#R7508), at a final concentration of 50 nM were made in the assay buffer (10 mM Tris HCl, pH 7.2, 10 mM MgCl2, 0.05% NaN3 0.01% Tween-20, and 1 mM DTT). Note that the substrate for PDE2 is 50 nM FAM cAMP containing 1000 nM of cGMP. The enzyme and the substrate were then added to the assay plates in two consecutive additions of 10 μL and then shaken to mix. The reaction was allowed to proceed at room temperature for 60 minutes. A binding solution was then made from the kit components, comprised of 80% Solution A, 20% Solution B and binding reagent at a volume of 1/600 the total binding solution. The enzymatic reaction was stopped by addition of 60 μL of the binding solution to each well of the assay plate. The plates were sealed and shaken for 10 seconds. The plates were incubated at room temperature for one hour, then the parallel and perpendicular fluorescence was measured using a Tecan Genios Pro plate reader (Tecan, Switzerland). The apparent inhibition constants for the compounds against all 11 PDE's was determined from the parallel and perpendicular fluorescent readings as described for PDE10 FP assay using the following apparent KM values for each enzyme and substrate combination: PDE1A (FAM cGMP) 70 nM, human PDE2A1 (FAM cAMP) 10,000 nM, PDE3A (FAM cAMP) 50 nM, PDE4A1A (FAM cAMP) 1500 nM, PDE5A1 (FAM cGMP) 400 nM, PDE6C (FAM cGMP) 700 nM, PDE7A (FAM cAMP) 150 nM, PDE8A1 (FAM cAMP) 50 nM, PDE9A2 (FAM cGMP) 60 nM, […] (FAM cAMP) 150 nM, PDE11A4 (FAM cAMP) 1000 nM. The intrinsic PDE2 inhibitory activity of a compound which may be used in accordance with the present invention may be determined by these assays. […]

[1] = LabA, read-out: rhPDE2 Ki (nM) LabA
[2] = LabB, read-out: rhPDE2 Ki (nM) LabB

Sequence of Rhesus PDE2A3 (B3VTJ2 1-941): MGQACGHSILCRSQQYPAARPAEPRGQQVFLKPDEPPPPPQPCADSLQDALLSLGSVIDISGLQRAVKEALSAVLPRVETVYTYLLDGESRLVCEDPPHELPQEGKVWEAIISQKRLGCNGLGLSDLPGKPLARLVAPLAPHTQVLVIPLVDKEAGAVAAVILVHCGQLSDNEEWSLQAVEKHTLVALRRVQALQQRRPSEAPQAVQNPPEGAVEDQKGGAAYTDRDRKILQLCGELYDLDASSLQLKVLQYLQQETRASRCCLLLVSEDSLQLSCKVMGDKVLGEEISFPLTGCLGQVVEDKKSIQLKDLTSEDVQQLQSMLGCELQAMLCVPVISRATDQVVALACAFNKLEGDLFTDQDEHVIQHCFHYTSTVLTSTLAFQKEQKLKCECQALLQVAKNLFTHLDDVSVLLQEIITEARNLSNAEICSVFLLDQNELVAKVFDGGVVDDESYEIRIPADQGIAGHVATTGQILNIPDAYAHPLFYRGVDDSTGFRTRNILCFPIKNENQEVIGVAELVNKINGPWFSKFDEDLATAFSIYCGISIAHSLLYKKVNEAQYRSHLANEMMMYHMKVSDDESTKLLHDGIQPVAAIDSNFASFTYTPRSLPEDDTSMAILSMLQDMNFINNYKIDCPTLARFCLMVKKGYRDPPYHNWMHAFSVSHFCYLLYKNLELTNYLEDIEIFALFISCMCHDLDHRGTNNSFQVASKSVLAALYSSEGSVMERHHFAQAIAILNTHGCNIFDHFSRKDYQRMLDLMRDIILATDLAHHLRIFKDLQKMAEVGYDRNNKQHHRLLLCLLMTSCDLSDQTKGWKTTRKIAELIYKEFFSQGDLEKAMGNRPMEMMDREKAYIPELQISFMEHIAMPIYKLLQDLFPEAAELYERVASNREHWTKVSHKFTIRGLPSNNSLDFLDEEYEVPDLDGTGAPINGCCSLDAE

| SMILES | Ki (Rhesus PDE2A3; [1]) [nM] | Ki (Rhesus PDE2A3; [2]) [nM] | Ki (human PDE2A1) [nM] |
| --- | --- | --- | --- |
| Cc1nc(-c2nnc([C@H](C)c3ccc(C(F)(F)F)cc3)o2)cc(=O)[nH]1 (single isomer, unassigned) [Example 10] | 470 | 699 |  |
| Cc1nc(-c2cn([C@H](C)c3ccc(C(F)(F)F)cc3F)cn2)cc(=O)[nH]1 (single isomer, unassigned) [Example 14] | 298 |  |  |
| Cc1nc(-c2cn(C(C)c3ccc(C(F)(F)F)cc3)cn2)cc(=O)[nH]1 (single isomer, unassigned) [Example 16, (R)- or (S)-2-methyl-6-(1-(1-(4-(trifluoro-methyl)phenyl)ethyl)-1H-imidazol-4-yl) pyrimidin-4 (3H)-one] | 340 |  |  |
| Cc1nc(-c2cncc([C@@H](C)c3ccc(C(F)(F)F)cc3)c2)cc(=O)[nH]1 (single isomer, unassigned) [Example 23] | > 1000 |  |  |
| Cc1nc(-c2cncc([C@@H](C)c3ccc(C(F)(F)F)cc3)c2)cc(=O)[nH]1 (single isomer, unassigned) [Example 24] | 826 |  |  |
| Cc1nc(-c2cc([C@@H](C)c3ccc(C(F)(F)F)cc3F)ncn2)cc(=O)[nH]1 (single isomer, unassigned) [Example 30] |  |  | 39 |
| Cc1nc(-c2cc([C@@H](C)c3ccc(C(F)(F)F)cc3F)ncn2)cc(=O)[nH]1 (single isomer, unassigned) [Example 31] |  |  | 16 |
| Cc1nc(-c2cc(C(C)c3ccc(C(F)(F)F)cc3)ncn2)cc(=O)[nH]1 (single isomer, unassigned) [Example 32, (R)- or (S)-2-methyl-6′-(1-(4-(trifluoromethyl)phenyl)ethyl)-[4,4′-bipyrimi-din]-6(1H)-one] |  |  | 64 |
| Cc1nc(-c2cc(C(C)c3ccc(C(F)(F)F)cc3)ncn2)cc(=O)[nH]1 (single isomer, unassigned) [Example 33] |  |  | 20 |
| Cc1nc(-c2nc(C(C)c3ccc(C(F)(F)F)cc3)cs2)cc(=O)[nH]1 (stereo not drawn) [Example 3, 2-Methyl-6-(4-(1-(4-(trifluoromethyl)phenyl)ethyl)thiazol-2-yl)pyrimidin-4(3H)-one] | 532 |  |  |
| Cc1nc(-c2noc(C(C)c3ccc(C(F)(F)F)cc3)n2)cc(=O)[nH]1 (stereo not drawn) [Example 11, 2-Methyl-6-(5-(1-(4-(trifluoromethyl)phenyl)ethyl)-1,2,4-oxadiazol-3-yl)pyrimidin-4(3H)-one] | 1080 | 1750 |  |
| Cc1nc(-c2nc(C(C)c3ccc(C(F)(F)F)cc3)no2)cc(=O)[nH]1 (stereo not drawn) [Example 12, 2-Methyl-6-(3-(1-(4-(trifluoromethyl)phenyl)ethyl)-1,2,4-oxadiazol-5-yl)pyrimidin-4(3H)-one] | 1870 | 2410 |  |
| Cc1nc(-c2ncc(C(C)c3ccc(C(F)(F)F)cc3)[nH]2)cc(=O)[nH]1 (stereo not drawn) [Example 13, 2-Methyl-6-(5-(1-(4-(trifluoromethyl)phenyl)ethyl)-1H-imidazol-2-yl)pyrimidin-4(3H)-one] | 868 | 631 |  |
| CCC(c1ccc(C(F)(F)F)cc1F)n1cnc(-c2cc(=O)[nH]c(C)n2)c1 (stereo not drawn) [Example 20, 6-(1-(1-(2-Fluoro-4-(trifluoromethyl)phenyl)propyl)-1H-imidazol-4-yl)-2-methylpyrimidin-4(3H)-one] |  | 123 |  |
| Cc1nc(-c2cn(C(c3ccc(C(F)(F)F)cc3F)C(C)C)cn2)cc(=O)[nH]1 (stereo not drawn) [Example 21, 6-(1-(1-(2-Fluoro-4-(trifluoromethyl)phenyl)-2-methylpropyl)-1H-imidazol-4-yl)-2-methylpyrimidin-4(3H)-one] |  | 110 |  |
| Cc1nc(-c2cc(C(C)c3ccc(C(F)(F)F)cc3)ccn2)cc(=O)[nH]1 (stereo not drawn) [Example 22, 2-methyl-6-(4-(1-(4-(trifluoromethyl)phenyl)ethyl)pyridin-2-yl)pyrimidin-4(3H)-one] | 920 | 868 |  |
| Cc1nc(-c2cncc(C(O)c3ccc(C(F)(F)F)cc3)c2)cc(=O)[nH]1 (stereo not drawn) [Example 25, 6-(5-(Hydroxy(4-(trifluoromethyl)phenyl)methyl)pyridin-3-yl)-2-methylpyrimidin-4(3H)-one] | 12900 |  |  |
| Cc1nc(-c2cncc(C(C)(O)c3ccc(C(F)(F)F)cc3)c2)cc(=O)[nH]1 (stereo not drawn) [Example 26, 6-(5-(1-Hydroxy-1-(4-(trifluoromethyl)phenyl)ethyl)pyridin-3-yl)-2-methylpyrimidin-4(3H)-one] | 1810 |  |  |
| Cc1nc(-c2ccnc(C(C)c3ccc(C(F)(F)F)cc3)c2)cc(=O)[nH]1 (stereo not drawn) [Example 27, 2-Methyl-6-(2-(1-(4-(trifluoromethyl)phenyl)ethyl)pyridin-4-yl)pyrimidin-4(3H)-one] | 1270 |  |  |
| Cc1nc(-c2ccnc(C(C)(O)c3ccc(C(F)(F)F)cc3)c2)cc(=O)[nH]1 (stereo not drawn) [Example 28, 6-(2-(1-hydroxy-1-(4-(trifluoromethyl)phenyl)ethyl)pyridin-4-yl)-2-methylpyrimidin-4(3H)-one] | 2880 |  |  |
| Cc1nc(-c2cncc(C(C)c3ccc(C(F)(F)F)cc3)n2)cc(=O)[nH]1 (stereo not drawn) [Example 29, 2-Methyl-6-(6-(1-(4-(trifluoromethyl)phenyl)ethyl)pyrazin-2-yl)pyrimidin-4(3H)-one] | 1710 | 1660 |  |
